Data published in patent US11911397B2, “Anordrin compositions and methods for treating diseases” (Zhejiang Jiachi Development Pharmaceuticals LTD, priority 2014, dated 2024).

What was measured:
[1] = test system: 8S and 4S estrogen-binding complexes in uterine cytosol; settings: cited from earlier work
[2] = test system: ovariectomized (OVX) mice; assay: ovariectomized (OVX) mice model; type: in vivo; settings: for fat deposits in paraffin sections of liver / body mass / total cholesterol (TC) in liver / triglyceride (TG) in liver: OVX mice; for body mass: after 6 weeks, intragastric; for total cholesterol (TC) in liver / triglyceride (TG) in liver: compared to controls
[3] = target: T1, ER-α ligand binding domain (GST-ER-α-LBD) (Homo sapiens, UniProt P03372); assay: 3H-E2 competition assay on GST-ER-α-LBD beads; settings: for blocking of [H^3-E2] binding to GST-ER-α-LBD on beads: 50 nM, 0.5 nM [H^3-E2], 1 μg GST-ER-α-LBD
T1 construct: made in house; host or cells: E. coli
T1 sequence (P03372 311-547 limits assumed): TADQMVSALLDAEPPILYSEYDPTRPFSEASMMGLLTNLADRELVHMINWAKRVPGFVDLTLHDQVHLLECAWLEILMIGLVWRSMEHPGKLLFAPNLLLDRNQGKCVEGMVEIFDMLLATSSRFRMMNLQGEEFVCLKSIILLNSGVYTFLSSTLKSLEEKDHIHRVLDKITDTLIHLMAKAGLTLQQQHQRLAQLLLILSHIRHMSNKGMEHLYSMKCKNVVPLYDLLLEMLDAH

[4] = test system: Bcl-2 expression in MCF-7 cells; assay: Bcl-2 expression in MCF-7 cells (western blotting, RT-qPCR); type: cell-based; settings: for increase of Bcl-2 mRNA transcription: 6 μM dinordrin, RT-qPCR
[5] = test system: BRCA1, ApoD, COX7a mRNA in MCF-7 cells; assay: RT-qPCR of genes regulated by the estrogen classic pathway in MCF-7 cells; type: cell-based; settings: for expression of ApoD: FIG. 13B
MCF-7 cells [6] = assay: MCF-7 cell growth, cell counting; type: cell-based
Procedure: To test this hypothesis we induced MCF-7 cells in IL-free medium for two months. Drug sensitivity of cell growth was tested by counting the cell number after 144 h of inoculation (FIG. 13A).

T47D cells = assay: EGF-induced T47D cell growth; type: cell-based; settings: 7.5 μM, 10 ng/ml EGF
ER-α-36 = target: T2, ER-α-36 (Homo sapiens, UniProt P03372); assay: 3H-E2 binding to ER-α-36 expressed in HEK-293 cells; settings: blocking at low, facilitating at higher concentrations
T2 construct: expressed in transfected cells; host or cells: HEK-293
T2 sequence (P03372 1-310 isoform P03372-4): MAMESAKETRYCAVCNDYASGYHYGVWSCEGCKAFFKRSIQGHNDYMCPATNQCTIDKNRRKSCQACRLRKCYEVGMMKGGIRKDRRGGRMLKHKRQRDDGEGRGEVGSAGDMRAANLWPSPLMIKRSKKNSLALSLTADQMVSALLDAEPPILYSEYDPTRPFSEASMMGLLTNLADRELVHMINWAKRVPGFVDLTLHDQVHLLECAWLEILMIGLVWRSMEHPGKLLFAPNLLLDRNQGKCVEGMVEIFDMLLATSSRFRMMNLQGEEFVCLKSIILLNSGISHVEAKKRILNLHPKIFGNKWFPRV
Text: MIESs effect their regulation of cell proliferation, migration, cell-cell junction and matrix, and energy metabolism through a series of scaffold protein complexes. ER-α association with the plasma membrane is facilitated by palmitoylation at residue C447 in the LBD. […] To verify this, we measured the binding affinity of 3H-E2 with GST-ER-α-36 expressed and purified from E. coli. […] In contrast, 3H-E2 does bind to GST-ER-α-46, which has a full length ER-α-LBD.
Isolation of microsome and Drug competition assay: Cells were harvested and lysed in TE buffer (50 mM Tris (pH8.0), 5 mM EDTA, 2 mM PMSF and protease inhibitor cocktail (Sigma)) for 30 min with vortexing every 5 min. 80% glycerol in TE buffer was added to cell lysates to reach 20% and centrifuged at 800 g for 5 min. The supernatant was transferred to new tubes and total protein concentration was adjusted to 5 mg/ml. Drugs and ^3H-E2 were added to 1 ml protein solution and incubated at 4° C. for 2 hours. Microsome was precipitated at 25 krpm for 2 hours. Bound ^3H-E2 was measured using GM meter.

MDA-MB-231 cells [7] = assay: MDA-MB-231 cell growth, cell counting; type: cell-based; settings: 6 μM anordrin
Hec1A cells = assay: Hec1A cell proliferation; type: cell-based
Ishikawa cells = assay: Ishikawa cell proliferation; type: cell-based
HepG2 cells = assay: HepG2 cell growth; type: cell-based
[8] = test system: ERK phosphorylation in HepG2 cells; assay: phosphorylation of ERK in HepG2 cells; type: cell-based; settings: non-monotonic dose response
MDA-MB-231 cells [9] = assay: MDA-MB-231 cell migration (matrixgel / transwell); type: cell-based; settings: 6 μM anordrin
Procedure: As anordrin has been reported as an anti-angiogenic agent resulting in inhibition of cell migration and invasion (16), we studied its ability to modulate MDA-MB-231 cell migration using matrixgel. […] After 20 hours migrated cells were stained and quantified using a plate reader at 560 nm.

[10] = test system: integrin β1 in MCF-7 cells; assay: integrin β1 cell surface distribution and expression in MCF-7 cells; type: cell-based; settings: 6 μM
Procedure: (§1) MCF-7 cells were harvested and lysed in RIPA buffer. 40 μg total protein of cellular lysate was used for Western blotting to determinate the expression level of integrin β1.
(§2) Integrin translocation to the cell surface is regulated by the p130Cas scaffold protein complex to play a fundamental role in cell attachment and migration. Integrin α3β1 has been reported to be involved in MCF-7 cell attachment as well as MDA-MB-231 cell migration (25, 26). […] To verify the hypothesis, we treated MCF-7 and MDA-MB-231 cells with 6 μM anordrin for 16 hours and measured cell surface integrin β1 distribution using a FITC-labeled anti-integrin β1 antibody. […] Taken together, we conclude that anordrin or analog thereof (such as […]) binds to membrane-associated ER to inhibit cell migration and proliferation.
(§3) Transwell and flow cytometry assay: Cells were starved for 48 hours in phenol red free medium containing 5% charcoal-stripped FBS, and then changed into phenol red free medium for an additional 24 hours. Transwell was performed following the Chemicon kit instructions (CAT #ECM551). Briefly, cells were trypsinized, washed using 1×DPBS containing Ca2+ and Mg2+ (Sigma) and resuspensed in serum and phenol red free medium at a cell density of 0.5×10^6 cells/ml. […]

[11] = test system: integrin β1 in MDA-MB-231 cells; assay: integrin β1 cell surface distribution and expression in MDA-MB-231 cells; type: cell-based; settings: 6 μM
Procedure: as §1, §2, §3

MCF-7 cells [12] = assay: glucose consumption and medium pH of MCF-7 cells; type: cell-based; settings: for glucose concentration of media / glucose consumption: 60 hours
db/db mice = assay: blood glucose in db/db mice; type: in vivo
MCF-7 cells [13] = assay: 2-NBDG glucose uptake and cellular ATP in MCF-7 cells; type: cell-based
Procedure: Glucose uptake was measured using fluorescently labeled glucose (2-NBDG), and ATP concentrations were measured using an ATP analysis kit.

ER-β = target: T3, ER-β (Homo sapiens, UniProt Q92731); assay: 3H-E2 binding to ER-β fusion protein expressed in HEK-293 cells; settings: 100 nM anordrin, 1 nM 3H-E2, HEK-293 lysate
T3 construct: expressed in transfected cells; host or cells: HEK-293
T3 sequence (Q92731 whole entry, species assumed, the tested form may be a part): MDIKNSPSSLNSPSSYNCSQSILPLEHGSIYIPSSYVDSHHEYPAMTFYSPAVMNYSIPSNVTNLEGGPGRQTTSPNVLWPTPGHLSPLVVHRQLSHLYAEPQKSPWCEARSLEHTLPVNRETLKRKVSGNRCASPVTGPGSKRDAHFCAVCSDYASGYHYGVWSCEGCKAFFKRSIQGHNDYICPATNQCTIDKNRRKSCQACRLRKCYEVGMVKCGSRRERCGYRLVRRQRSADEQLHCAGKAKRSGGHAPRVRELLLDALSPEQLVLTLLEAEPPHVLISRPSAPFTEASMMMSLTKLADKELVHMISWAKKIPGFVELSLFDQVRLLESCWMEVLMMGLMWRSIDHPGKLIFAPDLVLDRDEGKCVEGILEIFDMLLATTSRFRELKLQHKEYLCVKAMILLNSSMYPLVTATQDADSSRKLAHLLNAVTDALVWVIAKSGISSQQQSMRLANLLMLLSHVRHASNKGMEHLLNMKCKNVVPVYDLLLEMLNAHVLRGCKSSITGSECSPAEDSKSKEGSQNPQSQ
Procedure: (§4) Binding and competition assays: GST and GST-ER-α fusion proteins were expressed in E. coli and purified using glutathione beads. 2 μg/ml GST (40-80 nM) fusion proteins in 1 ml TE buffer was mixed with 1 nM ^3H-E2 at 4° C. for 2 h. Radioactivity on beads was measured using a GM meter. HEK-293 cells were transfected to express GST fusion proteins of ER-β or GPER1. Cells were lysed in 1×TE buffer containing protease inhibitor cocktail (sigma) on ice for 30 min, 80% glycerol was added to reach 20% glycerol. Tubes were centrifuged at 300 g for 5 min and supernatant was collected. Protein concentration was measured by Bio-rad protein concentration assay kit. 100 nM anordrin and 1 nM^3H-E2 was added to 1 ml lysate (5 mg/ml total protein) at 4° C. for 2 h. Radioactivity on beads was measured using GM meter.

GPER1 = target: T4, GPER1 (Homo sapiens, UniProt Q99527); assay: 3H-E2 binding to GPER1 fusion protein expressed in HEK-293 cells; settings: 100 nM anordrin, 1 nM 3H-E2, HEK-293 lysate
T4 construct: expressed in transfected cells; host or cells: HEK-293
T4 sequence (Q99527 whole entry, species assumed, the tested form may be a part): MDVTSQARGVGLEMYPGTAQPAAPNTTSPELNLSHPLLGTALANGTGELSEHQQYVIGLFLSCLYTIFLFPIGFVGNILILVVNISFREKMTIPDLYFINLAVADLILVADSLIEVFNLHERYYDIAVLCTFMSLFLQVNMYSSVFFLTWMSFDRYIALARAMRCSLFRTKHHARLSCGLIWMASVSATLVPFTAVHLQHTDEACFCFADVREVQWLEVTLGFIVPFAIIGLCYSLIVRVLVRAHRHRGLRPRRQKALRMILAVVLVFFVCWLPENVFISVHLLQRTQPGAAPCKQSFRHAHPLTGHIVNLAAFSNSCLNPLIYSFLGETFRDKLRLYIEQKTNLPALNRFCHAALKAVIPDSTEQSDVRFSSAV
Procedure: as §4

[14] = test system: patients whose cancers were potentially caused by EGF/Her1; settings: patients who failed to be inhibited by an EGF competitor; cited from earlier work
[15] = test system: endometrial epithelial cells; assay: endometrial epithelial cells in mice (histology); settings: for endometrial epithelial cell proliferation: monolayer vs polylayer
Text: Preparation of paraffin sections and HE staining: The tissue of mice was excised by surgery and fixed using 2.5% formaldehyde in 1×PBS.

normal mice = normal mice treated with tamoxifen, anordrin or both
[16] = charcoal-stripped FBS in phenol red free DMEM
[17] = anordrin 0.45 μg/g in combination with tamoxifen 4.5 μg/g per day
[18] = tamoxifen 4.5 μg/g body mass per day, 9 weeks

SMILES: C#C[C@@]1(O)C[C@@H]2CC[C@@H]3[C@H](CC[C@@]4(C)[C@H]3CC[C@@]4(O)C#C)[C@@]2(C)C1 [Anordiol, 2β,7α-diethyl-A-nor-5α-androstane-2α,17β-diol]
- binding to estrogen-binding complexes 4S and 8S [1]: preferentially bind the 8S complex

SMILES: C[C@]12CC[C@@H]3c4ccc(O)cc4CC[C@H]3[C@@H]1CC[C@@H]2O [E2, 17-beta estradiol]
- fat deposits in paraffin sections of liver [2]: smaller fat deposits
- body mass [2]: remained unchanged
- total cholesterol (TC) in liver [2]: decreased amounts
- triglyceride (TG) in liver [2]: decreased amounts

SMILES: C#C[C@@]1(OC(=O)CC)C[C@@H]2CC[C@@H]3[C@H](CC[C@@]4(C)[C@H]3CC[C@]4(C#C)OC(=O)CC)[C@@]2(C)C1 [anordrin, 2α,17α-diethynyl-A-nor-5α-androstane-2β,17β-diol dipropionate]
- inhibition of 3H-E2 binding to GST-ER-α-LBD ([3]; 50 nM compound, 0.5 nM 3H-E2, 2 μg GST-ER-α-LBD): could not inhibit
- blocking of [H^3-E2] binding to GST-ER-α-LBD on beads [3]: no inhibition
- increase of Bcl-2 mRNA transcription [4]: 3.18%±3.22%
- Bcl-2 mRNA expression ([4]; 7.5 μM, data not shown): not affected
- Bcl-2 protein expression ([4]; 7.5 μM, western blotting): not affected
- Bcl-2 protein expression [4, 16]: Neither tamoxifen nor anordrin or analog thereof (such as anordrin) were found to affect Bcl-2 protein expression
- mRNA level of BRCA1 [5]: did not significantly affect
- effect on the ability of tamoxifen to inhibit MCF-7 cell growth (MCF-7 cells [6]; 200 nM anordrin in the culture medium): did not affect
- inhibition at 7.5 µM (MCF-7 cells [6]; Homo sapiens, MCF7, 7.5 μM): > 50%
- EGF-induced cell growth (T47D cells): blocked the increase in cell growth
- effect on 3H-E2 binding to ER-α-36 (ER-α-36): biphasic effect
- MDA-MB-231 cell growth (MDA-MB-231 cells [7]): inhibits MDA-MB-231 cell growth significantly
- doses inhibiting proliferation (Hec1A cells): 2 to 8 µM
- doses inhibiting proliferation (Ishikawa cells): 2 to 8 µM
- concentration showing the greatest degree of inhibition of cell growth (HepG2 cells): around 7 μM
- shape of dose response of cell growth inhibition (HepG2 cells): biphasic dose response
- concentration of maximal phosphorylation of ERK [8]: 10 µM
- MDA-MB-231 cell migration in medium containing E2 (MDA-MB-231 cells [9]; 10 nM E2): significantly inhibited
- MDA-MB-231 cell migration in medium containing EGF (MDA-MB-231 cells [9]; 10 ng/ml EGF): significantly inhibited
- expression level of integrin β1 [10]: did not affect
- integrin β1 distribution to the plasma membrane ([10]; 16 hours): down-regulated
- expression level of integrin β1 [11]: did not affect
- integrin β1 distribution to the plasma membrane ([11]; 16 hours): down-regulated
- effect on tamoxifen inhibition of glucose metabolism (MCF-7 cells [12]; 200 nM anordrin with 1 μM tamoxifen, MCF-7, 60 hours): reversed the inhibitory effect
- pH of culture medium (MCF-7 cells [12]; MCF-7 cells): decreased pH
- glucose concentration of media / glucose consumption (MCF-7 cells [12]; MCF-7 cells): lower
- whole blood glucose / glucose consumption (db/db mice; female db/db mice, 0.45 μg/g body mass daily, 4 weeks): improved glucose consumption
- glucose consumption (db/db mice; male db/db mice, data not shown): no affect
- fat deposits in paraffin sections of liver [2]: smaller fat deposits
- body mass [2]: remained unchanged
- total cholesterol (TC) in liver [2]: decreased amounts
- triglyceride (TG) in liver [2]: decreased amounts
- bone marrow cells ([2]; ovariectomized mice): prevent decrease
- serum Ca^2+ ([2]; ovariectomized mice): increased
- serum Pi ([2]; ovariectomized mice): decreased
- uterine atrophy ([2]; ovariectomized mice): prevent uterine atrophy
- bone density ([2]; ovariectomized mice, micro-CT): increased
- 2-NBDG uptake (MCF-7 cells [13]): enhanced
- cellular ATP concentrations (MCF-7 cells [13]): enhanced
- 3H-E2 binding to ER-β fusion protein (ER-β): inhibits
- 3H-E2 binding to GPER1 fusion protein (GPER1): inhibits
- quality of life and lifespan of patients [14]: improve the quality of life and increase the lifespan
- hypertrophy of endometrial epithelial cells [15]: causes hypertrophy
- endometrial epithelial cell proliferation [15]: does not induce
- tamoxifen-induced NASH syndrome phenotype (normal mice; [17]): completely reversed
- tamoxifen-induced body weight phenotype (normal mice; [17]): completely reversed
- tamoxifen-induced liver TG phenotype (normal mice; [17]): completely reversed
- increased serum TG levels induced by tamoxifen (normal mice; mice): reverse
- increased serum viscosity induced by tamoxifen (normal mice; mice): reverse
- tamoxifen-induced uterine and vaginal atrophy (normal mice; tamoxifen treated mice): decrease the extent

SMILES: C#C[C@@]1(OC(=O)CC)C[C@@H]2CC[C@@H]3[C@H](CC[C@@]4(C)[C@H]3CC[C@]4(C#C)OC(=O)CC)[C@H]2C1 [dinordrin]
- blocking of [H^3-E2] binding to GST-ER-α-LBD on beads [3]: 63.2±5.7%
- increase of Bcl-2 mRNA transcription [4]: 147.2%±22.73%

SMILES: CC(C)Oc1ccc2c(=O)c(-c3ccccc3)coc2c1 [ipriflavone]
- body mass [2]: increased
- total cholesterol (TC) in liver [2]: no change
- triglyceride (TG) in liver [2]: no change

SMILES: O=C(c1ccc(OCCN2CCCCC2)cc1)c1c(-c2ccc(O)cc2)sc2cc(O)ccc12 [raloxifene]
- expression of ApoD [5]: enhance expression of ApoD

SMILES: CC/C(=C(\c1ccccc1)c1ccc(OCCN(C)C)cc1)c1ccccc1 [tamoxifen]
- Bcl-2 protein expression ([4]; 7.5 μM, western blotting): inhibit Bcl-2 expression
- Bcl-2 protein expression [4, 16]: Neither tamoxifen nor anordrin or analog thereof (such as anordrin) were found to affect Bcl-2 protein expression
- mRNA level of BRCA1 [5]: significantly inhibited
- transcription of COX7a mRNA [5]: significantly inhibited
- expression of ApoD [5]: enhance expression of ApoD
- MDA-MB-231 cell growth (MDA-MB-231 cells [7]): no effect
- glucose concentration of media / glucose consumption (MCF-7 cells [12]; MCF-7 cells): inhibition
- binding to estrogen-binding complexes 4S and 8S [1]: bind both estrogen-binding complexes
- endometrial epithelial cell proliferation [15]: induce proliferation
- indicators of NASH syndrome (normal mice; [18]): increased indicators of NASH syndrome
- liver TG levels (normal mice; [18]): increased
- body mass (normal mice; tamoxifen 4.5 μg/g body mass per day, 9 weeks, normal mice): increase in body mass
